# Measured values from ChEMBL document CHEMBL1201862, “PubChem BioAssay data set” (2004).
#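 Protocol summary: plate cells (96-well), add compound at 5 concentrations, incubate 48 h, interpolate endpoints linearly. Abbreviation: GI50, concentration required for 50% inhibition of growth.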 Activity calls are given as the source filed them. Rule as the data show it: active = GI50 up to about 1.1 µM and inactive = higher.
# Tests used:
# Assay in all cases: NCI-60 cell line screen, 48 h
# [1] = tested on: NCI-H460
# [2] = tested on: PC-3
# [3] = tested on: ACHN
# [4] = tested on: SK-MEL-28
# [5] = tested on: SW-620
# [6] = tested on: COLO 205
# [7] = tested on: MOLT-4
# [8] = tested on: A549
# [9] = tested on: SF-295
# [10] = tested on: 786-0
# [11] = tested on: HT-29
# [12] = tested on: CCRF-CEM
# [13] = tested on: SF-539
# [14] = tested on: SN12C
# [15] = tested on: Malme-3M
# [16] = tested on: SNB-19
# [17] = tested on: BT-549
# [18] = tested on: SNB-75
# [19] = tested on: SK-OV-3
# [20] = tested on: DU-145
# [21] = tested on: HCT-15
# [22] = tested on: OVCAR-4
# [23] = tested on: HOP-62
# [24] = tested on: SK-MEL-2
# [25] = tested on: SK-MEL-5
# [26] = tested on: MDA-N
# [27] = tested on: M14
# [28] = tested on: LOX IMVI
# [29] = tested on: OVCAR-3
# [30] = tested on: KM12
# [31] = tested on: Hs-578T
# [32] = tested on: IGROV-1
# [33] = tested on: TK-10
# [34] = tested on: SR
# [35] = tested on: HCC 2998
# [36] = tested on: OVCAR-8
# [37] = tested on: NCI-H522
# [38] = tested on: NCI-H226
# [39] = tested on: MCF7
# [40] = tested on: NCI-H23
# [41] = tested on: K562
# [42] = tested on: RPMI-8226
# [43] = tested on: EKVX
# [44] = tested on: MDA-MB-231
# [45] = tested on: UO-31
# [46] = tested on: HL-60
# [47] = tested on: HCT-116
# [48] = tested on: UACC-257
# [49] = tested on: NCI/ADR-RES
# [50] = tested on: MDA-MB-435
# [51] = tested on: CAKI-1
# [52] = tested on: U-251
# [53] = tested on: OVCAR-5
# [54] = tested on: T47D
# [55] = tested on: HOP-92
# [56] = tested on: A498
# [57] = tested on: UACC-62
smiles,measurement,setting,value
O=S1OC[C@H](CCCl)O1 (some centres not stated),GI50,[1],> 100 µM (inactive)
same,GI50,[2],> 100 µM (inactive)
same,GI50,[3],> 100 µM (inactive)
same,GI50,[4],69.5 µM (inactive)
same,GI50,[5],> 100 µM (inactive)
same,GI50,[6],> 100 µM (inactive)
same,GI50,[7],> 100 µM (inactive)
same,GI50,[8],> 100 µM (inactive)
same,GI50,[9],> 100 µM (inactive)
same,GI50,[10],> 100 µM (inactive)
same,GI50,[11],> 100 µM (inactive)
same,GI50,[12],> 100 µM (inactive)
same,GI50,[13],> 100 µM (inactive)
same,GI50,[14],> 100 µM (inactive)
same,GI50,[15],> 100 µM (inactive)
same,GI50,[16],> 100 µM (inactive)
same,GI50,[17],> 100 µM (inactive)
same,GI50,[18],> 100 µM (inactive)
same,GI50,[19],> 100 µM (inactive)
same,GI50,[20],> 100 µM (inactive)
same,GI50,[21],> 100 µM
same,GI50,[22],> 100 µM (inactive)
same,GI50,[23],> 100 µM (inactive)
same,GI50,[24],> 100 µM (inactive)
same,GI50,[25],> 100 µM (inactive)
same,GI50,[26],> 100 µM (inactive)
same,GI50,[27],> 100 µM (inactive)
same,GI50,[28],83.6 µM (inactive)
same,GI50,[29],> 100 µM (inactive)
same,GI50,[30],13.8 µM (inactive)
same,GI50,[31],> 100 µM (inactive)
same,GI50,[32],> 100 µM (inactive)
same,GI50,[33],> 100 µM (inactive)
same,GI50,[34],> 100 µM (inactive)
same,GI50,[35],> 100 µM (inactive)
same,GI50,[36],> 100 µM (inactive)
same,GI50,[37],> 100 µM (inactive)
same,GI50,[38],> 100 µM (inactive)
same,GI50,[39],> 100 µM (inactive)
same,GI50,[40],> 100 µM (inactive)
same,GI50,[41],> 100 µM (inactive)
same,GI50,[42],> 100 µM (inactive)
same,GI50,[43],> 100 µM (inactive)
same,GI50,[44],> 100 µM (inactive)
same,GI50,[45],> 100 µM (inactive)
same,GI50,[46],> 100 µM (inactive)
same,GI50,[47],> 100 µM (inactive)
same,GI50,[48],> 100 µM (inactive)
same,GI50,[49],> 100 µM (inactive)
same,GI50,[50],> 100 µM (inactive)
same,GI50,[51],> 100 µM (inactive)
same,GI50,[52],> 100 µM (inactive)
same,GI50,[53],> 100 µM (inactive)
same,GI50,[54],> 100 µM (inactive)
same,GI50,[55],> 100 µM (inactive)
same,GI50,[56],> 100 µM (inactive)
same,GI50,[57],> 100 µM (inactive)
